Converted amounts (≈) assume the structure as drawn. Where two headings read alike, the source gives them in different places. Bridge positions count the residues as written; N and C are the ends. Peptide text beside a SMILES is read from it.
Assays:
Staphylococcus aureus [1] = experiment: Radial diffusion (agar well diffusion) assay; assay type: cell-based, Staphylococcus aureus (ATCC 9144); conditions: peptide 100 µg/well, overnight 37 °C, S. aureus
Experimental: Antibacterial activity of all the cryptdin preparations was evaluated by performing radial diffusion assay. […] Following the addition of 20 μL aliquots of the cryptdin-2 preparations along with control sample (PBS) into a series of wells made in the gel, the plates were incubated overnight at 37 °C. The samples were examined for zone of clearance around the wells indicating inhibition of bacterial growth.

RAW 264.7 cell lines = experiment: Cell cytotoxicity assay (AlamarBlue); assay type: cell-based, murine; conditions: 24 h
Experimental: The cytotoxicity of recombinant peptide variants towards RAW 264.7 cell lines was assessed using AlamarBlue (Resazurin), a cell metabolic activity reagent (Sigma)[40]. The log phase cells diluted (2 × 10^5/well) in Dulbecco's Modified Eagle Medium (DMEM) containing 10% fetal bovine serum (FBS) were cultured in 96-well microtiter plates and incubated for 12 h under 5% CO2 conditions at 37 °C. […] Following this, 0.02% Alamar blue reagent was added to the cells and incubated for 8 h. Fluorescence was measured with excitation wavelength at 545 nm and emission wavelength at 590 nm. The percent difference between treated and un-treated cells was calculated to determine percent cytotoxicity.

[2] = Serum stability (antimicrobial activity after incubation in mice sera); assay type: in vitro ADME; conditions: for reduction of antibacterial activity after 3 h incubation with mice sera: peptide at its MIC, 50% mice serum, 37 °C, read-out micro broth dilution against S. aureus, repeated thrice in triplicates
Experimental: The stability of purified peptide preparations in mice sera was evaluated as described previously[15] with some modifications. Briefly, 80 µL of 50% serum was added to each well of 96-well plates followed by addition of 10 µL of bacterial suspension. The total CFU/mL value was adjusted to be identical in all the samples. Each peptide preparation (10 μL) was added to different wells and incubated at 37 °C for 0, 3, and 6 h respectively. The antimicrobial activities were assessed by performing micro broth dilution assay as described above for determination of MIC against S. aureus. The sera of mice were confirmed for absence of any intrinsic antimicrobial activity prior to performing the test.

Staphylococcus aureus [3] = assay type: cell-based; conditions: for MIC in combination, Peptides: peptide concentration in combination with gentamicin, checkerboard, S. aureus
Experimental: To investigate the interactive effect of these recombinant peptides, a checkerboard assay[41] was performed using a clinically prescribed antibiotic (gentamicin) as the other antibacterial agent. The assay employs the same methodology followed for determination of the MIC as described above. MIC values of peptide and gentamicin were used in this assay in order to calculate the FIC values. All the three peptide variants and gentamicin were tried in different ratios to evaluate interaction of the agents in combination against S. aureus. The same was determined on the basis of the FIC index, wherein an index of ≤ 0.5 indicated a synergistic effect and an index > 0.5 and ≤ 2 indicated an additive or indifferent nature of interaction respectively and lastly, the interaction was confirmed to be antagonistic when the index was > 2.0.
FIC index is expressed as: FIC Index=A1/A+B1/B where A1 and B1 are the respective concentrations of gentamicin and peptide producing the combined MICs, while A and B are the MICs of the individual agents.

Staphylococcus aureus [4] = experiment: microbe, parasite or virus in culture; assay type: cell-based, Staphylococcus aureus (ATCC 9144)
Experimental: To determine MIC values of the peptide preparations, micro broth dilution assay was performed. Briefly, S. aureus cells were grown to mid-exponential phase and diluted to a concentration of approximately 10^7 CFU/mL. Different concentrations of AMP preparations were separately added to wells containing bacterial suspension (approximately 10^6 CFU/mL) in sterile 96-well flat-bottom plate. After incubation at 37 °C, cell growth inhibition was assessed by measuring the absorbance at 595 nm on microplate reader (BioTek). MIC was recorded as the lowest concentration of the peptide preparation at which no visible growth was observed.

[5] = cited from earlier work
Excerpt: However, lesser adverse effect was observed on cell membrane when treated with the PEGylated peptide. These findings correlated well with the increased MIC of the peptide as observed above. It is highly probable that site-specific mutation followed by PEG-conjugat ...

| Compound | antimicrobial activity, zone of growth inhibition (Staphylococcus aureus [1]) | cell viability (RAW 264.7 cell lines) | MIC after incubation with serum, 0 h [2] [µg/mL] | MIC after incubation with serum, 3 h [2] [µg/mL] | MIC after incubation with serum, 6 h [2] [µg/mL] | reduction of antibacterial activity after 3 h incubation with mice sera [2] [%] | MIC in combination, Peptides (Staphylococcus aureus [3]) [µg/mL] | further results |
| --- | --- | --- | --- | --- | --- | --- | --- | --- |
| CSCC[C@@H]1NC(=O)[C@H](CCCNC(=N)N)NC(=O)[C@H](CS)NC(=O)[C@H](CCCNC(=N)N)NC(=O)[C@H](CCCNC(=N)N)NC(=O)[C@H](CCCCN)NC(=O)[C@@H]2CSSC[C@@H]3NC(=O)[C@H](CC(C)C)NC(=O)[C@H]([C@@H](C)O)NC(=O)[C@H](Cc4ccc(O)cc4)NC(=O)[C@H](CCSC)NC(=O)[C@H](CC(C)C)NC(=O)[C@H](Cc4c[nH]cn4)NC(=O)CNC(=O)[C@H](CCCCN)NC(=O)[C@H](CCCNC(=N)N)NC(=O)[C@H](CSSC[C@H](NC(=O)[C@H](Cc4ccc(O)cc4)NC(=O)[C@@H](NC(=O)[C@@H](NC(=O)[C@H](CC(C)C)NC(=O)[C@H](CC(=O)O)NC(=O)[C@H](CCCNC(=N)N)NC(=O)[C@@H](N)CC(C)C)C(C)C)CSSC[C@@H](C(=O)N[C@@H](CCCNC(=N)N)C(=O)O)NC3=O)C(=O)N[C@@H](CCCNC(=N)N)C(=O)N[C@@H]([C@@H](C)O)C(=O)N[C@@H](CCCNC(=N)N)C(=O)NCC(=O)N2)NC(=O)[C@H]([C@@H](C)O)NC(=O)CNC(=O)[C@H](CC(N)=O)NC1=O [E18C cryptdin-2] (H-LRDLVCYCRTRGCKRRCRMNGTCRKGHLMYTLCCR-OH; disulfide 6-34, 8-23, 13-33) | potent antimicrobial activity | ~65% | 20 | 40 | 60 | 50 | 2.5 | FIC indices (Staphylococcus aureus [3]): 0.375 |
| CNC(C)C1CCC(N)C(OC2C(N)CC(N)C(OC3OCC(C)(O)C(NC)C3O)C2O)O1 (stereo not shown) [Gentamicin, gentamicin, reference compound] | – | – | – | – | – | – | – | MIC (Staphylococcus aureus [4]; agent alone against Staphylococcus aureus, Table 1, read-out: MIC): 0.097 µg/mL (≈ 0.203 µM) |
| CSCC[C@@H]1NC(=O)[C@H](CCCNC(=N)N)NC(=O)[C@H](CCC(=O)O)NC(=O)[C@H](CCCNC(=N)N)NC(=O)[C@H](CCCNC(=N)N)NC(=O)[C@H](CCCCN)NC(=O)[C@@H]2CSSC[C@@H]3NC(=O)[C@H](CC(C)C)NC(=O)[C@H]([C@@H](C)O)NC(=O)[C@H](Cc4ccc(O)cc4)NC(=O)[C@H](CCSC)NC(=O)[C@H](CC(C)C)NC(=O)[C@H](Cc4c[nH]cn4)NC(=O)CNC(=O)[C@H](CCCCN)NC(=O)[C@H](CCCNC(=N)N)NC(=O)[C@H](CSSC[C@H](NC(=O)[C@H](Cc4ccc(O)cc4)NC(=O)[C@@H](NC(=O)[C@@H](NC(=O)[C@H](CC(C)C)NC(=O)[C@H](CC(=O)O)NC(=O)[C@H](CCCNC(=N)N)NC(=O)[C@@H](N)CC(C)C)C(C)C)CSSC[C@@H](C(=O)N[C@@H](CCCNC(=N)N)C(=O)O)NC3=O)C(=O)N[C@@H](CCCNC(=N)N)C(=O)N[C@@H]([C@@H](C)O)C(=O)N[C@@H](CCCNC(=N)N)C(=O)NCC(=O)N2)NC(=O)[C@H]([C@@H](C)O)NC(=O)CNC(=O)[C@H](CC(N)=O)NC1=O [cryptdin-2] (H-LRDLVCYCRTRGCKRRERMNGTCRKGHLMYTLCCR-OH; disulfide 6-34, 8-23, 13-33) | potent antimicrobial activity | approximately 70% | 20 | 40 | 70 | 50 | 2.5 | MIC (Staphylococcus aureus [4]): 20 µg/mL (≈ 4.71 µM) |
| magainin 2 | – | – | – | – | – | – | – | decrease in antimicrobial activity after PEG conjugation ([5]; 5 kDa PEG at N-terminal end): fourfold |
| nisin | – | – | – | – | – | – | – | antimicrobial activity after PEGylation ([5]; PEGylation via amine group of the lysine side-chain): inactive conjugate |

Source: article PMC7376037, “Recombinant expression, purification and PEGylation of Paneth cell peptide (cryptdin-2) with value added attributes against Staphylococcus aureus” (Scientific Reports, 2020)
